Experimental data published in PMC6150365, “Simultaneous Determination of Seven Components in Rat Plasma by the UPLC-MS/MS Method and Application of Pharmacokinetic Studies to SimiaoYong’an Decoction” (Molecules : A Journal of Synthetic Chemistry and Natural …, 2017).

Assay: Pharmacokinetic study in rats after oral administration of SYD extract and its single and combined TCM extracts (UPLC-MS/MS of plasma)
Conditions: for MRT last: MRT(0–t); for MRT inf: MRT(0–∞); for half-life: t1/2, rat plasma
[1] = male, Sprague-Dawley, rat, plasma, po, 0.68 g/kg, rat plasma, oral GU extract 0.68 g/kg, n = 6
[2] = male, Sprague-Dawley, rat, plasma, po, 2.14 g·kg^−1 (extract), rat plasma, oral LJ + GU extract, n = 6
[3] = male, Sprague-Dawley, rat, plasma, po, 2.43 g/kg, rat plasma, oral AS + GU extract 2.43 g/kg, n = 6
[4] = male, Sprague-Dawley, rat, plasma, po, 3.38 g/kg extract (6.67 g/kg as herbs), rat plasma, oral SN + GU extract, n = 6
[5] = male, Sprague-Dawley, rat, plasma, po, 4.01 g·kg^−1 (extract), rat plasma, oral LJ + AS + GU extract, n = 6
[6] = male, Sprague-Dawley, rat, plasma, po, 4.73 g/kg, rat plasma, oral LJ + SN + GU extract 4.73 g/kg, n = 6
[7] = male, Sprague-Dawley, rat, plasma, po, 8.25 g/kg, rat plasma, oral SYD extract 8.25 g/kg, n = 6

Q: With O=C1C[C@@H](c2ccc(O[C@@H]3O[C@H](CO)[C@@H](O)[C@H](O)[C@H]3O)cc2)Oc2cc(O)ccc21 [Liquiritin, liquiritin] as the molecule, how does the AUC(0-t) [1] read?
A: 190 ng·h/mL

Q: What about the AUC(0-inf) (male, Sprague-Dawley, rat, plasma, po, 0.68 g/kg, AUC(0–∞), rat plasma, oral GU extract 0.68 g/kg, n = 6) of the same molecule?
A: 190 ng·h/mL

Q: And the Cmax (male, Sprague-Dawley, rat, plasma, po, 0.68 g/kg, Cmax, rat plasma, oral GU extract 0.68 g/kg, n = 6)?
A: 270 ng/mL

Q: And the MRT last [1]?
A: 1.16 ± 0.01 h

Q: What about the MRT inf [1] of the same molecule?
A: 1.19 ± 0.01 h

Q: What about the Tmax (male, Sprague-Dawley, rat, plasma, po, 0.68 g/kg, Tmax, rat plasma, oral GU extract 0.68 g/kg, n = 6) of the same molecule?
A: 0.08 h

Q: What about the half-life (male, Sprague-Dawley, rat, plasma, po, 0.68 g/kg, oral GU extract 0.68 g/kg, n = 6) of the same molecule?
A: 4.41 ± 0.59 h

Q: And the AUC(0-inf) (male, Sprague-Dawley, rat, plasma, po, 2.14 g·kg^−1 (extract), AUC(0–∞), rat plasma, oral LJ + GU extract, n = 6)?
A: 200 ± 60 ng·h/mL

Q: What about the MRT last [2] of the same molecule?
A: 2.53 ± 0.56 h

Q: And the MRT inf [2]?
A: 13.5 ± 11 h

Q: What about the Tmax (male, Sprague-Dawley, rat, plasma, po, 2.14 g·kg^−1 (extract), Tmax, rat plasma, oral LJ + GU extract, n = 6) of the same molecule?
A: 0.56 ± 0.56 h

Q: And the half-life (male, Sprague-Dawley, rat, plasma, po, 2.14 g·kg^−1 (extract), oral LJ + GU extract, n = 6)?
A: 12.2 ± 7.3 h

Q: And the AUC(0-t) (male, Sprague-Dawley, rat, plasma, po, 2.14 g·kg^−1 extract, rat plasma, oral LJ + GU extract, n = 6)?
A: 180 ± 60 ng·h/mL

Q: What about the AUC(0-t) [3] of the same molecule?
A: 220 ± 80 ng·h/mL

Q: And the AUC(0-inf) (male, Sprague-Dawley, rat, plasma, po, 2.43 g/kg, AUC(0–∞), rat plasma, oral AS + GU extract 2.43 g/kg, n = 6)?
A: 240 ± 80 ng·h/mL

Q: And the MRT last [3]?
A: 2.3 ± 0.63 h

Q: And the MRT inf [3]?
A: 11.1 ± 8.58 h

Q: And the Tmax (male, Sprague-Dawley, rat, plasma, po, 2.43 g/kg, Tmax, rat plasma, oral AS + GU extract 2.43 g/kg, n = 6)?
A: 0.6 ± 0.5 h

Q: What about the half-life (male, Sprague-Dawley, rat, plasma, po, 2.43 g/kg, oral AS + GU extract 2.43 g/kg, n = 6) of the same molecule?
A: 9.28 ± 5.92 h

Q: And the MRT last [4]?
A: 2.48 ± 0.46 h

Q: What about the MRT inf [4] of the same molecule?
A: 12.4 ± 9.87 h

Q: And the Tmax (male, Sprague-Dawley, rat, plasma, po, 3.38 g/kg extract (6.67 g/kg as herbs), Tmax, rat plasma, oral SN + GU extract, n = 6)?
A: 0.42 ± 0.53 h

Q: What about the half-life (male, Sprague-Dawley, rat, plasma, po, 3.38 g/kg extract (6.67 g/kg as herbs), oral SN + GU extract, n = 6) of the same molecule?
A: 7.81 ± 5.31 h

Q: And the AUC(0-t) (male, Sprague-Dawley, rat, plasma, po, 3.38 g·kg^−1 (extract), rat plasma, oral SN + GU extract, n = 6)?
A: 180 ± 50 ng·h/mL

Q: What about the AUC(0-inf) (male, Sprague-Dawley, rat, plasma, po, 3.38 g·kg^−1 (extract), AUC(0–∞), rat plasma, oral SN + GU extract, n = 6) of the same molecule?
A: 210 ± 50 ng·h/mL

Q: And the Cmax (male, Sprague-Dawley, rat, plasma, po, 3.38 g·kg^−1 extract, Cmax, rat plasma, oral SN + GU extract, n = 6)?
A: 150 ± 70 ng/mL

Q: What about the AUC(0-t) [5] of the same molecule?
A: 220 ± 130 ng·h/mL

Q: And the AUC(0-inf) (male, Sprague-Dawley, rat, plasma, po, 4.01 g·kg^−1 (extract), AUC(0–∞), rat plasma, oral LJ + AS + GU extract, n = 6)?
A: 260 ± 140 ng·h/mL

Q: What about the Cmax (male, Sprague-Dawley, rat, plasma, po, 4.01 g·kg^−1 (extract), Cmax, rat plasma, oral LJ + AS + GU extract, n = 6) of the same molecule?
A: 210 ± 170 ng/mL

Q: And the MRT last [5]?
A: 2.41 ± 0.63 h

Q: And the MRT inf [5]?
A: 16 ± 11.8 h

Q: And the Tmax (male, Sprague-Dawley, rat, plasma, po, 4.01 g·kg^−1 (extract), Tmax, rat plasma, oral LJ + AS + GU extract, n = 6)?
A: 0.79 ± 0.29 h

Q: And the half-life (male, Sprague-Dawley, rat, plasma, po, 4.01 g·kg^−1 (extract), oral LJ + AS + GU extract, n = 6)?
A: 13.7 ± 4.69 h

Q: And the AUC(0-t) [6]?
A: 230 ± 160 ng·h/mL

Q: What about the AUC(0-inf) (male, Sprague-Dawley, rat, plasma, po, 4.73 g/kg, AUC(0–∞), rat plasma, oral LJ + SN + GU extract 4.73 g/kg, n = 6) of the same molecule?
A: 260 ± 170 ng·h/mL

Q: And the MRT last [6]?
A: 2.5 ± 0.67 h

Q: What about the MRT inf [6] of the same molecule?
A: 16.3 ± 12.9 h

Q: What about the Tmax (male, Sprague-Dawley, rat, plasma, po, 4.73 g/kg, Tmax, rat plasma, oral LJ + SN + GU extract 4.73 g/kg, n = 6) of the same molecule?
A: 0.88 ± 0.31 h

Q: And the half-life (male, Sprague-Dawley, rat, plasma, po, 4.73 g/kg, oral LJ + SN + GU extract 4.73 g/kg, n = 6)?
A: 13.4 ± 5.15 h

Q: And the AUC(0-inf) (male, Sprague-Dawley, rat, plasma, po, 8.25 g/kg)?
A: 340 ± 210 ng·h/mL

Q: What about the AUC(0-t) [7] of the same molecule?
A: 290 ± 210 ng·h/mL

Q: And the Cmax (male, Sprague-Dawley, rat, plasma, po, 8.25 g/kg, Cmax, rat plasma, oral SYD extract 8.25 g/kg, n = 6)?
A: 210 ± 170 ng/mL

Q: What about the MRT last [7] of the same molecule?
A: 2.89 ± 0.92 h

Q: And the MRT inf [7]?
A: 11.3 ± 7.16 h

Q: And the Tmax (male, Sprague-Dawley, rat, plasma, po, 8.25 g/kg, Tmax, rat plasma, oral SYD extract 8.25 g/kg, n = 6)?
A: 0.88 ± 0.31 h

Q: And the half-life (male, Sprague-Dawley, rat, plasma, po, 8.25 g/kg, oral SYD extract 8.25 g/kg, n = 6)?
A: 13.4 ± 5.59 h

Q: And the half-life (male, Sprague-Dawley, rat, plasma, po, […], oral SN + AS + GU extract […], n = 6)?
A: 11.6 ± 5.01 h

Q: What about the Cmax (rat plasma, oral AS + GU extract 2.43 g/kg, n = 6) of the same molecule?
A: 200 ± 130 ng/mL

Q: What about the Cmax (rat plasma, oral LJ + GU extract, n = 6) of the same molecule?
A: 140 ± 70 ng/mL

Q: And the Tmax (rat plasma, oral SN + AS + GU extract […], n = 6)?
A: 1.00 ± 0.27 h
